The source of these data is patent publication US12466821B2 (Novartis AG, priority 2018, dated 2025).

The target in assay [1] is human HSV DNA polymerase UL30 (Human herpesvirus 1 (strain 17) (HHV-1) (Human herpes simplex virus 1), UniProt P04293). The assay is described as follows: HSV polymerase biochemical assay (molecular beacon-based). How it is done:
(§1) Both human CMV DNA polymerase UL54 and human HSV DNA polymerase UL30 were produced as N-terminal MBP fusion of the full length, wild type recombinant proteins in order to enhance soluble expression in insect cell expression system. The proteins were expressed in sf9 insect cells via baculovirus transduction and cells were harvested after 48 hours. The soluble proteins were purified using the standard Ni-IMAC purification strategy via the N-terminal hexa-Histidine tag, followed by heparin affinity chromatography. Both of the final MBP fusion proteins were more than 90% pure and the yield of UL54 was up to 1.8 mg per liter culture while UL30 was up to 15 mg per liter culture. All purification steps were performed on ice, with buffers chilled on ice and FPLC fraction collectors set at 6° C. […] UL30 protein was stored in buffer containing 20 mM HEPES, pH7.0, 420 mM NaCl, 20% glycerol, 6 mM Imidazole, and 0.8 mM DTT at−80° C.
(§2) DNA polymerase activity was measured using a molecular beacon-based assay, as described in Ma et. al.
(§3) 100 pM CMV polymerase or 625 pM HSV polymerase was added to a buffer containing 20 mM Tris, pH=7.5, 100 mM NaCl, 10 mM MgCl2, 0.01% Tween-20, 0.5 mM EDTA, 10% Sucrose and 1 mM DTT. The inhibitor was pre-incubated with the polymerase for 30 minutes at room temperature. Reactions were initiated by the addition of a mixture containing 1.25 uM dATP, 1.25 uM dCTP, 1.25 uM dTTP, 1.25 uM dGTP, 200 nM Primer B (5′-GAC GGG AAG-3′5′-GAC GGG AAG-3′) and 100 nM molecular beacon (5′-5,6-FAM-CCTCTCCGTGTCTTGTACTTCCCGTCAGAGAGG-BHQ1-3′). For human CMV polymerase the reactions were incubated for 60 minutes at room temperature. For HSV polymerase the reactions were incubated for 20 minutes at room temperature. The reactions were then read on a Perkin-Elmer EnVision 2101 reader (fluorescence) using an excitation of 480 nm and emission of 535 nm. 1050s were determined using an internal Novartis software (Helios).
as §3, with “nm.” for “nm. 1050s were determined using an internal Novartis software (Helios).”

Assay [2] has as its target human CMV DNA polymerase UL54 (Human cytomegalovirus (strain AD169) (HHV-5) (Human herpesvirus 5), UniProt P08546). The assay is described as follows: CMV polymerase biochemical assay (molecular beacon-based). As for the experimental part:
as §1, §2, §3
as §3, with “nm.” for “nm. 1050s were determined using an internal Novartis software (Helios).”

The test system of assay [3] is Luciferase-encoding HCMV, AD169 strain. The assay is described as follows: CMV Luciferase assay (cellular herpesvirus replication). The class given is cell-based. Conditions: Human betaherpesvirus 5, AD169, read-out: CMV-Luc Cellular EC50. How it is done:
For all viral assays, 10 mM DMSO stock compound solutions were serially diluted in DMSO at 3.16 fold dilutions in 96-well clear round bottom plates. Compounds were then diluted in assay media at 1:20 and subsequently 10 μL of these dilutions were added to cells for final compound concentrations ranging either from 0.0159 μM to 50 μM in 0.5% DMSO/assay media, or from 0.00318 to 10 μM in 0.5% DMSO/assay media.
The assay uses a Luciferase-encoding HCMV. Luciferase is expressed under the control of a late viral gene (pp28) promoter in the AD169 strain, so that expression of the reporter is dependent on viral DNA replication. Compounds that affect any stage from viral entry to DNA replication result in a change in luciferase levels.
Viral replication in the presence or absence of compounds was measured by luciferase activity according to the following procedure: Neo-natal normal human dermal fibroblast cells (NN-NHDF, from ATCC cat #201-010) were seeded at 9,000 cells/well in 96-well white solid bottom plate at 80 uL/well in assay media: 2% FBS, 4 mM GlutaMax® (Invitrogen cat #35050) in DMEM/high glucose/no glutamine/no phenol red media (Invitrogen cat #31053). After 2 hrs at 37° C., 10 uL of compound diluted in assay media or 5% DMSO (final 0.5% DMSO/well) was added and the plates returned to 37° C. One hour later, 10 uL of virus diluted in assay media was added at a final Multiplicity of infection (MOI) of 1. Plates were incubated at 37° C. for 72 hrs. At 72 hours post-infection (hpi), plates were equilibrated to room temperature. After 25 min, 100 uL Renilla-Glo® Luciferase Assay Reagent (Promega cat # E2750) was added to each well and incubated for 10 min. Plates were covered to protect from light. Luminescence was measured on the PHERAstar FS®.
The following controls were included in the data analysis: No virus, no compound (0.5% DMSO)=IC (maximal inhibitory control); Virus, no compound (0.5% DMSO)=NC (neutral control). Data were analyzed using an internal Novartis software (Helios). The means of the controls (NC, IC) were used to normalize the results to a % scale using the formula: % Control=100−(100*(Sample value−NC)/(IC−NC)).
For each compound, the software derived an EC50 using a 4-parameter logistical model.

Broadly, the IC50 is the concentration needed to halve the response being measured. Low values mean inhibition by little substance, high ones a need for much substance. As a reminder, the EC50 is the concentration at which the effect is half-maximal. With `N#Cc1ccc(CNC(=O)c2ccc3n(c2=O)CCN(CC2(S(=O)(=O)[C@@H]4CC4(F)F)CC2)C3=O)cc1` (single isomer, unassigned) [Example 100-2], the 50% inhibitory concentration (IC50) amounted to 39.5 nM in assay [1] and 1 nM in assay [2]. Moreover, the half-maximal effective concentration (EC50) in assay [3] worked out at 43.1 nM.

For `N#Cc1ccc(CNC(=O)c2ccc3n(c2=O)CCN(CC2(S(=O)(=O)[C@H]4CC4(F)F)CC2)C3=O)cc1F` (single isomer, unassigned) [Example 101-1], the IC50 in assay [1] was 48.7 nM; in assay [2], 1 nM. In assay [3], the EC50 came out at 55.5 nM.

`N#Cc1ccc(CNC(=O)c2ccc3n(c2=O)CCN(CC2(S(=O)(=O)[C@@H]4CC4(F)F)CC2)C3=O)cc1F` (single isomer, unassigned) [Example 101-2]: the IC50 amounted to 32.9 nM in assay [1] and 0.6 nM in assay [2]. For the same molecule, in assay [3], the EC50 is 29.6 nM.

Regarding `N#Cc1ccc(CNC(=O)c2ccc3n(c2=O)CCN(CC2(S(=O)(=O)[C@H]4CC4(F)F)CC2)C3=O)cc1Cl` (single isomer, unassigned) [Example 102-1], the IC50 amounted to 199 nM in assay [1] and 2 nM in assay [2]. Further, the EC50 in assay [3] is 229 nM.

For `N#Cc1ccc(CNC(=O)c2ccc3n(c2=O)CCN(CC2(S(=O)(=O)[C@@H]4CC4(F)F)CC2)C3=O)cc1Cl` (single isomer, unassigned) [Example 102-2], the 50% inhibitory concentration (IC50) is 162 nM in assay [1] and 1.5 nM in assay [2]. Also, the concentration for a half-maximal effect (EC50) in assay [3] was found to be 85.2 nM.

In the case of `O=C(NCc1ccc(Cl)cc1)c1ccc2n(c1=O)CCN(CC1(S(=O)(=O)C3CC3)CC1)C2=O` [Example 2], the IC50 in assay [1] turned out to be 15.5 nM; in assay [2], 0.2 nM. Further, the EC50 in assay [3] was 8.1 nM.

On to `N#Cc1ccc(CNC(=O)c2ccc3n(c2=O)CCN(CC2(S(=O)(=O)C4CC4)CC2)C3=O)cc1F` [Example 3-1], for which the figures for the IC50 in assay [1] and in assay [2] were 38.1 nM and 0.8 nM, respectively. Besides, the EC50 in assay [3] was 17.7 nM.

Turning to `O=C(NCc1ccc(F)cc1)c1ccc2n(c1=O)CCN(CC1(S(=O)(=O)C3CC3)CC1)C2=O` [Example 3-2], the half-maximal inhibitory concentration (IC50) was determined as 78.7 nM in assay [1] and 3 nM in assay [2]. In addition, the half-maximal effective concentration (EC50) in assay [3] came to 84.8 nM.

Regarding `O=C(NCc1ccc(F)c(F)c1)c1ccc2n(c1=O)CCN(CC1(S(=O)(=O)C3CC3)CC1)C2=O` [Example 3-3], the IC50 in assay [1] was 149 nM; in assay [2] it was 7.9 nM. In addition, the EC50 in assay [3] came out at 64 nM.

`COc1cc(CNC(=O)c2ccc3n(c2=O)CCN(CC2(S(=O)(=O)C4CC4)CC2)C3=O)ccc1Cl` [Example 3-5]: the results for the IC50 in assay [1] and in assay [2] were 117 nM and 2 nM, respectively. Besides, the EC50 in assay [3] was found to be 211 nM.

For `CC(CCO)S(=O)(=O)C1(CN2CCn3c(ccc(C(=O)NCc4ccc(C#N)cc4)c3=O)C2=O)CC1` (stereo not drawn) [Example 5, N-(4-cyanobenzyl)-2-((1-((4-hydroxybutan-2-yl)sulfonyl)cyclopropyl)methyl)-1,6-dioxo-2,3,4,6-tetrahydro-1H-pyrido[1,2-a]pyrazine-7-carboxamide], the IC50 in assay [1] worked out at 105 nM; in assay [2] it was 2.2 nM. The EC50 in assay [3] was 470 nM.

`O=C(NCc1ccc(Cl)cc1)c1ccc2n(c1=O)CCN(CC1(S(=O)(=O)C3(CO)CC3)CC1)C2=O` [Example 10, N-(4-chlorobenzyl)-2-((1-((1-(hydroxymethyl)cyclopropyl)sulfonyl)cyclopropyl)methyl)-1,6-dioxo-2,3,4,6-tetrahydro-1H-pyrido[1,2-a]pyrazine-7-carboxamide]: the figures for the IC50 in assay [1] and in assay [2] were 18.8 nM and 0.3 nM, respectively. Moreover, the EC50 in assay [3] was determined as 4.9 nM.

For `N#Cc1ccc(CNC(=O)c2ccc3n(c2=O)CCN(CC2(S(=O)(=O)C4(CO)CC4)CC2)C3=O)cc1` [Example 11], the IC50 in assay [1] is 24.3 nM; in assay [2], 0.4 nM. Also, in assay [3], the EC50 was determined as 26.7 nM.

On to `N#Cc1ccc(CNC(=O)c2ccc3n(c2=O)CCN(CC2(S(=O)(=O)C4(CO)CC4)CC2)C3=O)cc1F` [Example 12], for which the IC50 amounted to 23.5 nM in assay [1] and 0.4 nM in assay [2]. In addition, the EC50 in assay [3] was 19.7 nM.
